# Data as given in patent US12203941B2, “Methods and compositions for diagnosis and prognosis of renal injury and renal failure” (ASTUTE MEDICAL, INC., priority 2013, dated 2025).
# Where two headings read alike, the source gives them in different places.
# How the values were obtained:
# patients without AKI = conditions: previous investigators; cited from earlier work
# [1] = tested on: critically ill patients with either stage I or II Acute Kidney Injury Network (AKIN) criteria; conditions: for Urine volume, Hour 1: Hour 1 after FST; for Urine volume, Hour 1 / Urine volume, Hour 2 / Urine volume, Hour 3 / Urine volume, Hour 4 / Urine volume, Hour 5 / Urine volume, Hour 6: mean (s.e.); for Urine volume, Hour 2: Hour 2 after FST; for Urine volume, Hour 3: Hour 3 after FST; for Urine volume, Hour 4: Hour 4 after FST; for Urine volume, Hour 5: Hour 5 after FST; for Urine volume, Hour 6: Hour 6 after FST; for Tolerability / adverse events attributable to the FST: critically ill patients with AKI, well-resuscitated, iv furosemide 1.0 or 1.5 mg/kg, urine output replaced with isotonic fluids when appropriate
# From the text: Replacement fluid was not protocolized in this group of subjects. Demographic, clinical data, urine sediment scores, and outcome data were abstracted from the case report forms.
# Prior to FST urine was collected. […] In order to minimize the risk of hypovolemia, urine output was replaced ml for ml each hour with either Ringers lactate or normal saline for six hours after the FST. The treating team could elect not to replace the volume if net volume loss was considered clinically desirable.
# Urine output was measured hourly for six hours and in total for 24 hours. […] Patients were followed for 14 days or hospital discharge, whichever occurred first. Fractional excretion of sodium was calculated as described in Bagshaw and colleagues. MDRD equation was used to calculate the eGFR as described in Levey and colleagues. Cardiovascular SOFA score and APACHE II score were calculated as previously described.
compound,measurement,setting,value
NS(=O)(=O)c1cc(C(=O)O)c(NCc2ccco2)cc1Cl [Furosemide],Time of maximum diuretic effect,patients without AKI,within the first three hours
same,"Urine volume, Hour 1","[1]; Combined n = 77, furosemide 1.0 or 1.5 mg/kg iv",251 (35.2) ml
same,"Urine volume, Hour 1",[1]; Furosemide Naive n = 29,331 (68.5) ml
same,"Urine volume, Hour 1",[1]; Non-naive N = 48,258 (37.2) ml
same,"Urine volume, Hour 2",[1]; Combined n = 77,296 (35.8) ml
same,"Urine volume, Hour 2",[1]; Furosemide Naive n = 29,348 (66.6) ml
same,"Urine volume, Hour 2",[1]; Non-naive N = 48,264 (40.9) ml
same,"Urine volume, Hour 3",[1]; Combined n = 77,246 (26.6) ml
same,"Urine volume, Hour 3",[1]; Furosemide Naive n = 29,285 (52.1) ml
same,"Urine volume, Hour 3",[1]; Non-naive N = 48,223 (28.6) ml
same,"Urine volume, Hour 4",[1]; Combined n = 77,207 (24.1) ml
same,"Urine volume, Hour 4",[1]; Furosemide Naive n = 29,240 (48.6) ml
same,"Urine volume, Hour 4",[1]; Non-naive N = 48,188 (25.4) ml
same,"Urine volume, Hour 5",[1]; Combined n = 77,175 (18.6) ml
same,"Urine volume, Hour 5",[1]; Furosemide Naive n = 29,204 (35.9) ml
same,"Urine volume, Hour 5",[1]; Non-naive N = 48,157 (22.5) ml
same,"Urine volume, Hour 6",[1]; Combined n = 77,155 (17.4) ml
same,"Urine volume, Hour 6",[1]; Furosemide Naive n = 29,167 (33.6) ml
same,"Urine volume, Hour 6",[1]; Non-naive N = 48,147 (19.6) ml
same,Tolerability / adverse events attributable to the FST,[1],these complications were not observed in this study
same,Tolerability / adverse events attributable to the FST,[1]; listed as furosemide,well tolerated with no episodes of hypotension or any other adverse event deemed attributable to the test
same,Time of maximum urine flow rate (UFR) after FST,[1]; hourly urine output for six hours after iv furosemide,within the first two to three hours
same,Mean UO in response to the challenge,[1]; in 6 hours after FST,over 1.3 liters
